Data from patent US11567065B2, “Measuring frequency of pathogen-specific T cells in peripheral blood” (THOMAS JEFFERSON UNIVERSITY, priority 2015, dated 2023).

Tested on: 68A62 CTL
Assay: CaFlux assay: Ca2+ flux in monolayer of 68A62 CTL
Format: cell-based, human
Conditions: FIG. 4A
Method: 10^6 cells in 1 ml of PBS were loaded with Fluo-4 (Life Technologies) at 2-4 μM for 30 min at 37° C. in the presence of 0.02% pluoronic acid F-127 and 4 mM Probenecid. The cells were washed free of unreacted reagents and incubated at 37° C. for additional 30 min. The cells were then re-suspended in the assay buffer (Dulbecco's PBS containing 1 mM CaCl2, 2 mM MgCl2, 5 mM glucose, and 0.025% BSA) and used for Ca2+ flux analysis.
Glass bottom of 96 well MatTec plates was covered with poly-L-Lysine (Sigma, mol wt>300,000) at 0.1 mg/ml for 1 hr at room temperature. After washing with DPBS and dd water, TS2/4 non-blocking mAb specific for LFA-1 were added to the plate at concentration 10 μg/ml overnight & 4° C. The wells were washed with DPBS, and 3×10^5 Fluo-4-labeled T cells in 100 μl of the assay buffer were added to each well. The plates were centrifuged for 700 g for one minute and were incubated for 30 min at room temperature prior to the imaging. […] The quality of T cell monolayer was assessed using bright field microscopy.
To identify responding T cells we imaged T-cell monolayers before (background measurement) and after (response) addition of the stimulatory signal such as agonist peptide. […] The average intensity of images prior and after the T-cell stimulation at various time points and the numbers of individual responding cells per imaging field were determined by MetaMorph software.

Sequence: ILKEPVHGV (IV9)
- time to maximum of Ca2+ increase following stimulation: 2 to 3 min
